Source: ChEMBL document CHEMBL1123871, “Methotrexate analogues. 30. Dihydrofolate reductase inhibition and in vitro tumor cell growth inhibition by N epsilon-(haloacetyl)-L-lysine and N delta-(haloacetyl)-L-ornithine analogues and an acivicin analogue of methotrexate” (J Med Chem, 1987)

Columns and labels:
Dihydrofolate reductase = biological target: T1, Dihydrofolate reductase (Mus musculus, UniProt P00375)
T1 sequence (P00375 whole entry): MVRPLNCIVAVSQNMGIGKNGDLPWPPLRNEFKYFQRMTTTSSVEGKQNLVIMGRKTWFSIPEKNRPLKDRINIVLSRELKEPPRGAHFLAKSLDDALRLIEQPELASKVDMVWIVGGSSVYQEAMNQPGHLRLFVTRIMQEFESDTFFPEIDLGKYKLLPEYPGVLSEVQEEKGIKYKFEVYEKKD
Description: Inhibition of dihydrofolate reductase(DHFR) from L1210/R81 cells

[1] = Fold resistance calculated by dividing the IC50(L1210/R81) by the IC50(L1210)
L1210 [2] = test: Inhibition of L1210/R81 murine leukemia cell growth; assay type: functional, cell-based; details: Mus musculus
L1210 [3] = test: Inhibition of L1210 cultured murine leukemia cell growth; assay type: functional, cell-based; details: Mus musculus

Compound | IC50 (Dihydrofolate reductase) | Resistance [1] | IC50 (L1210 [2]) | IC50 (L1210 [3])
CN(Cc1cnc2nc(N)nc(N)c2n1)c1ccc(C(=O)NC(CCCNC(=O)CBr)C(=O)O)cc1 (stereo not drawn) | 46 nM | 1200 | 155 nM | 126 nM
CN(Cc1cnc2nc(N)nc(N)c2n1)c1ccc(C(=O)N[C@@H](CCC(=O)O)C(=O)O)cc1 [METHOTREXATE] | – | 44000 | – | 5 nM
CN(Cc1cnc2nc(N)nc(N)c2n1)c1ccc(C(=O)NC(CCCCNC(=O)CCl)C(=O)O)cc1 (stereo not drawn) | 32 nM | 2800 | 93 nM | 33 nM
CN(Cc1cnc2nc(N)nc(N)c2n1)c1ccc(C(=O)NC(CCCCNC(=O)CBr)C(=O)O)cc1 (stereo not drawn) | 72 nM | 2500 | 240 nM | 96 nM
CN(Cc1cnc2nc(N)nc(N)c2n1)c1ccc(C(=O)NC(CCCNC(=O)CCl)C(=O)O)cc1 (stereo not drawn) | 32 nM | 1700 | 105 nM | 62 nM
